# Assay results from BindingDB's records for doi:10.3109/14756366.2013.793184 (Nycomed, 2014).
# Where “and” joins values, the source holds several entries; their conditions need not be identical. Equal entries are not always repeated.
# Target: Inosine-5'-monophosphate dehydrogenase 2 (Homo sapiens, UniProt P12268)
# Experiment: Enzyme Assay
# Conditions: pH 8; 37 °C
# Description: The reaction was initiated by the addition of 300 μM of IMP and 500 μM of NAD+ and the assay was allowed to proceed at 37 °C for 50 min before stopping by the addition of 15 mM GMP. The NADH generated was measured by reading the absorbance at 340 nm.
row,IC50,Compound
1,0.23 µM,"CCC(CC#N)OC(=O)N[C@@H](C)c1cccc(NC(=O)Nc2ccc(OC)c(OC)c2)c1 (some centres not stated) [IMPDH II inhibitor, 13]"
2,19 µM,"CCC(CC#N)OC(=O)N[C@@H](C)c1cccc(NC(=O)Nc2ccc(C)c(OC)c2)c1 (some centres not stated) [IMPDH II inhibitor, 14]"
3,< 30 µM,"CCC(CC#N)OC(=O)N[C@@H](C)c1cccc(NC(=O)Nc2ccc(N3CCOCC3)c(OC)c2)c1 (some centres not stated) [IMPDH II inhibitor, 15]"
4,3.5 µM,"CCC(CC#N)OC(=O)N[C@@H](C)c1cccc(NC(=O)Nc2ccc(C3=CCOCC3)c(OC)c2)c1 (some centres not stated) [IMPDH II inhibitor, 16]"
5,< 30 µM,"CCC(CC#N)OC(=O)N[C@@H](C)c1cccc(NC(=O)Nc2ccc(C3CCOCC3)c(OC)c2)c1 (some centres not stated) [IMPDH II inhibitor, 17]"
6,10 µM,"CCC(CC#N)OC(=O)N[C@@H](C)c1cccc(NC(=O)Nc2ccc3c(c2)OCC3)c1 (some centres not stated) [IMPDH II inhibitor, 18]"
7,> 30 µM,"CCC(CC#N)OC(=O)N[C@@H](C)c1cccc(NC(=O)Nc2ccc3c(c2)OCO3)c1 (some centres not stated) [IMPDH II inhibitor, 20]"
8,14 µM,"CCC(CC#N)OC(=O)N[C@@H](C)c1cccc(NC(=O)Nc2ccc3c(c2)ncn3C)c1 (some centres not stated) [IMPDH II inhibitor, 21]"
9,< 30 µM,"CCC(CC#N)OC(=O)N[C@@H](C)c1cccc(NC(=O)Nc2ccc3ncc(OC)nc3c2)c1 (some centres not stated) [IMPDH II inhibitor, 22]"
10,< 30 µM,"CCC(CC#N)OC(=O)N[C@@H](C)c1cccc(NC(=O)Nc2ccc3cc(OC)c(OC)cc3c2)c1 (some centres not stated) [IMPDH II inhibitor, 23]"
11,< 30 µM,"CCC(CC#N)OC(=O)N[C@@H](C)c1cccc(NC(=O)Nc2ccc3c(c2)C(C)CO3)c1 (some centres not stated) [IMPDH II inhibitor, 24]"
12,< 30 µM,"CCC(CC#N)OC(=O)N[C@@H](C)c1cccc(NC(=O)Nc2ccc3ncnc(OC)c3c2)c1 (some centres not stated) [IMPDH II inhibitor, 25]"
13,< 30 µM,"CCC(CC#N)OC(=O)N[C@@H](C)c1cccc(NC(=O)Nc2ccc3c(=O)cc(C)oc3c2)c1 (some centres not stated) [IMPDH II inhibitor, 26]"
14,< 10 µM,"CCC(CC#N)OC(=O)N[C@@H](C)c1cccc(NC(=O)Nc2ccc3c(=O)ccoc3c2)c1 (some centres not stated) [IMPDH II inhibitor, 27]"
15,< 30 µM and 30 µM,"CCC(CC#N)OC(=O)N[C@@H](C)c1cccc(NC(=N)Nc2ccc(C#N)c(OC)c2)c1 (some centres not stated) [IMPDH II inhibitor, 30]"
16,< 30 µM,"CCC(CC#N)OC(=O)N[C@@H](C)c1cccc(NC(=N)Nc2ccc(OC)c(OC)c2)c1 (some centres not stated) [IMPDH II inhibitor, 31]"
17,3 µM,"CCC(CC#N)OC(=O)N[C@@H](C)c1cccc(N/C(=N/C#N)Nc2ccc(C#N)c(OC)c2)c1 (some centres not stated) [IMPDH II inhibitor, 32]"
18,5.6 µM,"CCC(CC#N)OC(=O)N[C@@H](C)c1cccc(N/C(=N/C#N)Nc2ccc(OC)c(OC)c2)c1 (some centres not stated) [IMPDH II inhibitor, 33]"
19,< 30 µM,"CCC(CC#N)OC(=O)N[C@@H](C)c1cccc(N/C(=C/[N+](=O)[O-])Nc2ccc(C#N)c(OC)c2)c1 (some centres not stated) [IMPDH II inhibitor, 34]"
20,< 30 µM,"CCC(CC#N)OC(=O)N[C@@H](C)c1cccc(N/C(=C/[N+](=O)[O-])Nc2ccc(OC)c(OC)c2)c1 (some centres not stated) [IMPDH II inhibitor, 35]"
21,< 30 µM,"CCC(CC#N)OC(=O)N[C@@H](C)c1cccc(NCC(=O)Nc2ccc(OC)c(OC)c2)c1 (some centres not stated) [IMPDH II inhibitor, 36]"
22,< 30 µM,"CCC(CC#N)OC(=O)N[C@@H](C)c1cccc(NC(=O)CNc2ccc(C#N)c(OC)c2)c1 (some centres not stated) [IMPDH II inhibitor, 37]"
23,< 30 µM,"CCC(CC#N)OC(=O)N[C@@H](C)c1cccc(NC(=O)COc2ccc(C#N)c(OC)c2)c1 (some centres not stated) [IMPDH II inhibitor, 38]"
24,< 30 µM,"CCC(CC#N)OC(=O)N[C@@H](C)c1cccc(NC(=O)COc2ccc(OC)c(OC)c2)c1 (some centres not stated) [IMPDH II inhibitor, 39]"

row,IC50,Compound
1,< 30 µM,"CCC(CC#N)OC(=O)N[C@@H](C)c1cccc(NC(=O)NS(=O)(=O)c2ccc(OC)c(OC)c2)c1 (some centres not stated) [IMPDH II inhibitor, 40]"
2,< 30 µM,"CCC(CC#N)OC(=O)N[C@@H](C)c1cccc(NC(=O)N2CCN(c3ccc(C#N)c(OC)c3)CC2)c1 (some centres not stated) [IMPDH II inhibitor, 41]"
3,25 µM,"CCC(CC#N)OC(=O)N[C@@H](C)c1cccc(N2C(=O)CN(c3ccc(C#N)c(OC)c3)C2=O)c1 (some centres not stated) [IMPDH II inhibitor, 42]"
4,< 30 µM,"CCC(CC#N)OC(=O)N[C@@H](C)c1cccc(NC(=O)c2cncc(-c3ccc(C#N)c(OC)c3)n2)c1 (some centres not stated) [IMPDH II inhibitor, 43]"
5,< 30 µM,"CCC(CC#N)OC(=O)N[C@@H](C)c1cccc(Nc2nc3ccc(-c4ccc(C#N)c(OC)c4)cc3[nH]2)c1 (some centres not stated) [IMPDH II inhibitor, 44]"
6,< 30 µM,"COc1cc(N/C(=N/C#N)Nc2cccc(OCC(=O)C(C)=O)c2)ccc1C#N [IMPDH II inhibitor, 45]"
7,< 30 µM,"COc1cc(N/C(=N/C#N)Nc2cccc(OCC(=O)O)c2)ccc1C#N [IMPDH II inhibitor, 46]"
8,< 30 µM,"COc1cc(N/C(=N/C#N)Nc2cccc(-c3nnn(C)n3)c2)ccc1C#N [IMPDH II inhibitor, 47]"
9,< 30 µM,"COc1cc(N/C(=N/C#N)Nc2cccc(-c3nnnn3C)c2)ccc1C#N [IMPDH II inhibitor, 48]"
10,< 30 µM,"COc1cc(N/C(=N/C#N)Nc2cccc(Cc3nnn(C)n3)c2)ccc1C#N [IMPDH II inhibitor, 49]"
11,< 30 µM,"COc1cc(N/C(=N/C#N)Nc2cccc(CCC(=O)O)c2)ccc1C#N [IMPDH II inhibitor, 50]"
12,< 30 µM,"COc1cc(N/C(=N/C#N)Nc2cccc(/C=C/C(=O)O)c2)ccc1C#N [IMPDH II inhibitor, 51]"
13,< 30 µM,"COc1cc(N/C(=N/C#N)Nc2cccc(CC(=O)O)c2)ccc1C#N [IMPDH II inhibitor, 52]"
14,< 30 µM,"COc1cc(N/C(=N/C#N)Nc2cccc(C(=O)O)c2)ccc1C#N [IMPDH II inhibitor, 53]"
15,< 30 µM,"COc1cc(N/C(=N/C#N)Nc2cccc(-c3ccccc3F)c2)ccc1C#N [IMPDH II inhibitor, 54]"
16,< 30 µM,"COc1cc(N/C(=N/C#N)Nc2cccc(-c3cccc(F)c3)c2)ccc1C#N [IMPDH II inhibitor, 55]"
17,< 30 µM,"COc1cc(N/C(=N/C#N)Nc2cccc(-c3ccc(F)cc3)c2)ccc1C#N [IMPDH II inhibitor, 56]"
18,< 30 µM,"COc1cc(N/C(=N/C#N)Nc2cccc(-c3cccc(C(F)(F)F)c3)c2)ccc1C#N [IMPDH II inhibitor, 57]"
19,< 30 µM,"COc1cc(N/C(=N/C#N)Nc2cccc(-c3cccc(C(=O)O)c3)c2)ccc1C#N [IMPDH II inhibitor, 58]"
20,< 30 µM,"COc1cc(N/C(=N/C#N)Nc2cccc(-c3ccc(C#N)cc3)c2)ccc1C#N [IMPDH II inhibitor, 59]"
21,< 30 µM,"COc1cc(N/C(=N/C#N)Nc2cccc(-c3cccc(C#N)c3)c2)ccc1C#N [IMPDH II inhibitor, 60]"
22,0.38 µM,CCC(CC#N)OC(=O)N[C@@H](C)c1cccc(NC(=O)Nc2ccc(C#N)c(OC)c2)c1 (some centres not stated) [VX-148 (3)]
23,0.0035 µM,COc1cc(NC(=O)Nc2cccc(CNC(=O)OC3CCOC3)c2)ccc1-c1cnco1 (configuration not stated) [VX-497 (2)]
